Assay results taken from patent publication US20230045902A1, “COMPOSITION FOR REINFORCING FUNCTION OF STEM CELL” (SCM LIFE SCIENCE CO., LTD., priority 2020, published 2023).

Key:
Type in all cases: cell-based
[1] = test system: IFN-γ; test: IFN-γ secretion in PHA-activated T-cells co-cultured with treated mesenchymal stem cells (IFN-γ kit); conditions: MSC treated 24 hours (Table 1 concentrations), co-cultured 3 days with PHA-activated T-cells; FIG. 3
Source text: As a control group, mesenchymal stem cells that were not treated with the test substance were used.

[2] = test system: Inducible costimulatory ligand (ICOSL); test: ICOSL expression change in mesenchymal stem cells by qRT-PCR; conditions: MSC treated 24 hours, Table 1 concentrations; FIG. 4
Method: Inducible costimulatory ligand (ICOSL) is known to inhibit activated T cells by inducing regulatory T cells. Since the function-enhancing effect of the mesenchymal stem cells according to the treatment with the experimental group was confirmed in Example 1.1, an experiment was performed to additionally confirm whether the treatment with the experimental group induces inflammation and immune regulation ability of the mesenchymal stem cells. After culturing stem cells as in Experimental Example 1, total RNA was isolated using TRIzol (Invitrogen), and then cDNA was synthesized from total RNA using PrimeScript™ reagent Kit with gDNA Eraser (TaKaRa) and qRT-PCR was performed. Through this, the expression change of ICOSL, which is a representative factor of inflammation and immune regulation, was confirmed, and the results are shown in FIG. 4.

[3] = test system: TSG6 and IDO; test: Concentration setting of IL-1β in MSC by expression of TSG6 and IDO; conditions: treated in MSC
Method: IL-1β, IFN-α and vitamin B6 were selected as candidate substances, and concentrations for function-enhancing were set. When IL-1β was treated in MSC, it was confirmed that the lowest effective concentration capable of increasing the expression of TSG6 and IDO was 20 ng/ml, and this was set as the standard.

[4] = test system: Galectin 1; test: Galectin 1 expression change in mesenchymal stem cells by qRT-PCR; conditions: MSC treated 24 hours, Table 1 concentrations; FIG. 5
Source text: 1.3. Confirmation of Change in Galectin 1 Expression According to the Treatment with the Experimental Group Galectin 1 is known as a stem cell potency marker closely related to the high efficacy of stem cells, and it is known that the more the expression increases, the stronger the stem cell function and efficacy. Therefore, in order to further confirm whether the treatment with the experimental group induces the inflammation and immune regulation ability of the mesenchymal stem cells, an experiment was performed to confirm the expression of Galectin 1. After culturing stem cells as in Experimental Example 1, total RNA was isolated using TRIzol (Invitrogen), and then cDNA was synthesized from total RNA using PrimeScript™ reagent Kit with gDNA Eraser (TaKaRa) and qRT-PCR was performed. Using this, a change in the expression of Galectin 1, an indicator of stem cell efficacy, was confirmed, and the result is shown in FIG. 5.

[5] = test system: indoleamine 2,3-dioxygenase (IDO); test: IDO expression change in mesenchymal stem cells by qRT-PCR; conditions: MSC treated 24 hours, Table 1 concentrations; FIG. 6
Method: At 37° C. and 5% CO2 incubator, mesenchymal stem cells in storage state (stored in LN2 tank) were thawed and cultured. At this time, they were cultured in a medium (DMEM, alpha-MEM) containing 10% FBS or 4% hPL. Cells were cultured until confluence reached about 80%. After seeding the cultured mesenchymal stem cells in a 100 mm dish, a candidate material for enhancing the mesenchymal stem cell function was selected.
The selected 20 ng/ml of IL-1β and vitamin B6 and IFN-α at different concentrations were combined, and the effect was confirmed by the change in indoleamine 2,3-dioxygenase (IDO) expression. IDO is known as an immunomodulatory factor that suppresses the proliferation of immune cells such as T cells by changing tryptophan, which is essential for T cell proliferation, into kynurenine. After culturing stem cells, total RNA was isolated using TRIzol (Invitrogen), and cDNA was synthesized from total RNA using PrimeScript™ reagent Kit with gDNA Eraser (TaKaRa), followed by qRT-PCR.
The selected candidate substances and their concentration combinations are shown in Table 1, and they were treated to mesenchymal stem cells for 24 hours, and the function-enhancing effect was confirmed. […]

| Molecule | change in IFN-γ secretion compared to the untreated control group [1] | expression of ICOSL [2] | lowest effective concentration capable of increasing the expression of TSG6 and IDO [3] [ng/mL] | expression of Galectin 1 [4] | IDO expression change [5] |
| --- | --- | --- | --- | --- | --- |
| interferon alpha (IFN-α) | not significant | did not show a distinct increase |  |  |  |
| Interleukin 1 beta (IL-1β) | not significant | increased | 20 | increased | did not show a distinct expression change |
| Cc1ncc(CO)c(CO)c1O.Cl [vitamin B6] | not significant | did not show a distinct increase |  | did not show a distinct increase | did not show a distinct expression change |
